Measurements: US6528494B2 (priority 1996, dated 2003)
Where a name gives a salt, the structure may show the parent alone.

Experiments:
Assay type in all cases: cell-based
[1] = molecular target: T1, adenosine 3 receptor (Homo sapiens, UniProt P0DMS8); experiment: Agonist activity against adenosine 3 receptor (CHO cells, forskolin-enhanced cAMP/SPAP reporter); settings: CHO cells transfected with human receptor; forskolin-enhanced cAMP via SPAP; mean of all the versions tested
T1 sequence (P0DMS8 1-318): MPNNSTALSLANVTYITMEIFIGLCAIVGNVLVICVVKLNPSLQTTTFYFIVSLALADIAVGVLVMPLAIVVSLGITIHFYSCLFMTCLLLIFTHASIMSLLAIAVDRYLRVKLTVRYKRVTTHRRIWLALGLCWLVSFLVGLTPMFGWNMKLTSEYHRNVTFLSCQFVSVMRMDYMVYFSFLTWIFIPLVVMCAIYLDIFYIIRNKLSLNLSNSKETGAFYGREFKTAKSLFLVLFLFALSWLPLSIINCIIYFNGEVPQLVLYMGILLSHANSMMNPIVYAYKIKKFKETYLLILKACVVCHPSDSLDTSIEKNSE
Procedure: (§1) (1) Agonist activity against adenosine 2a, adenosine 1 and adenosine 3 receptor subtypes.
(§2) The effect of test compounds was determined by their effects on basal levels of cAMP (A2a) or on forskolin-enhanced cAMP (A1 and A3) as reflected by changes in levels of SPAP.

[2] = molecular target: adenosine 2a receptor (Homo sapiens, UniProt P29274); experiment: Agonist activity against adenosine 2a receptor (CHO cells, cAMP/SPAP reporter); settings: CHO cells transfected with human receptor; basal cAMP via SPAP; mean of all the versions tested
Procedure: as §1, §2

[3] = molecular target: T2, adenosine 1 receptor (Homo sapiens, UniProt P30542); experiment: Agonist activity against adenosine 1 receptor (CHO cells, forskolin-enhanced cAMP/SPAP reporter); settings: CHO cells transfected with human receptor; forskolin-enhanced cAMP via SPAP; mean of all the versions tested
T2 sequence (P30542 1-326): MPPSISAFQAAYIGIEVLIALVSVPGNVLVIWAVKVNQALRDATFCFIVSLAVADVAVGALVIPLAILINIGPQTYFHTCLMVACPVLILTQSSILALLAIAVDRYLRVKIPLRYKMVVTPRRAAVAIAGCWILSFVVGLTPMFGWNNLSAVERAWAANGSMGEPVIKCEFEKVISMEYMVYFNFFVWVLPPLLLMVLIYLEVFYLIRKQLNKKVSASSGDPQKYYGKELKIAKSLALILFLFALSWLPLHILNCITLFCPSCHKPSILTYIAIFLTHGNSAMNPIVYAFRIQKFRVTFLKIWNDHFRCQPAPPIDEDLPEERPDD
Procedure: as §1, §2

adenosine 2a receptor, sequence (P29274 whole entry): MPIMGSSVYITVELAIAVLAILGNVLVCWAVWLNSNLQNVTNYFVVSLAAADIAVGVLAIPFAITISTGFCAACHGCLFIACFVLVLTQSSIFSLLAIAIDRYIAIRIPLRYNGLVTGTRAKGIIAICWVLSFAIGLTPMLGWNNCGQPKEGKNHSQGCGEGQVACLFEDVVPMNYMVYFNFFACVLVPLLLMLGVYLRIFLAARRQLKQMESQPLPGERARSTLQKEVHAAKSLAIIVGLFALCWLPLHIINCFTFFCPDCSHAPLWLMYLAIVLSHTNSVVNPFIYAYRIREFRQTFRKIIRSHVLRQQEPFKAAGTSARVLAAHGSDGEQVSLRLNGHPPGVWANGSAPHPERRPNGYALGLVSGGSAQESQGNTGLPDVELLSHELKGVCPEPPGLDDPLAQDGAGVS

| SMILES | A3 EC50 as a ratio of that of NECA [1] | A2a EC50 as a ratio of that of NECA [2] | A1 EC50 as a ratio of that of NECA [3] |
| --- | --- | --- | --- |
| COc1ccc(CCNc2nc(N)c3ncn([C@@H]4O[C@H](c5nnn(C)n5)[C@@H](O)[C@H]4O)c3n2)cc1OC.O=CO [Example 38, (2R,3R,4S,5R)-2-{6-Amino-2-[2-(3,4-dimethoxy-phenyl)-ethylamino]-purin-9-yl}-5-(2-methyl-2H-tetrazol-5-yl)-tetrahydro-furan-3,4-diol Formate] | >315 | 0.13 | 946 |
| Cn1nnc([C@H]2O[C@@H](n3cnc4c(N)nc(NC5CC6CCC5C6)nc43)[C@H](O)[C@@H]2O)n1.O=CO (stereo partly drawn) [Example 39, (2R,3R,4S,5R)-2-[6-Amino-2-(bicyclo[2.2.1]hept-2-ylamino)-purin-9-yl]-5-(2-methyl-2H-tetrazol-5-yl)-tetrahydro-furan-3,4-diol Formate] | >315 | 0.31 | 1429 |
| CC(C)n1nnc(C2OC(n3cnc4c(NC(CO)Cc5ccccc5)nc(NCCc5cn(C)cn5)nc43)C(O)C2O)n1 [Example 40, (2R,3R,4S,5R)-2-{6-(1S-Hydroxymethyl-2-phenyl-ethylamino)-2-[2-(1-methyl-1H-imidazol-4-yl)-ethylamino]-purin-9-yl}-5-(2-isopropyl-2H-tetrazol-5-yl)-tetrahydro-furan-3,4-diol Formate] | >232 | 0.31 | 22.1 |
| CC(C)n1nnc([C@H]2O[C@@H](n3cnc4c(NC5CCCC5)nc(NCCc5cn(C)cn5)nc43)[C@H](O)[C@@H]2O)n1.O=CO [Example 41, (2R,3R,4S,5R)-2-{6-Cyclopentylamino-2-[2-(1-methyl-1H-imidazol-4-yl)-ethylamino]-purin-9-yl}-5-(2-isopropyl-2H-tetrazol-5-yl)-tetrahydro-furan-3,4-diol Formate] | >232 | 0.73 | 28.9 |
| COc1ccc(CCNc2nc(N)c3ncn([C@@H]4O[C@H](c5nnn(C(C)C)n5)[C@@H](O)[C@H]4O)c3n2)cc1OC.O=CO [Example 42, (2R,3R,4S,5R)-2-{6-Amino-2-[2-(3,4-dimethoxy-phenyl)-ethylamino]-purin-9-yl}-5-(2-isopropyl-2H-tetrazol-5-yl)-tetrahydro-furan-3,4-diol Formate] | >413 | 0.63 | 414.9 |
| CCn1nnc([C@H]2O[C@@H](n3cnc4c(NCC(c5ccccc5)c5ccccc5)nc(NCCN5CCCC5)nc43)[C@H](O)[C@@H]2O)n1.O=C(O)C(F)(F)F.O=C(O)C(F)(F)F.O=C(O)C(F)(F)F [Example 43, (2R,3R,4S,5R)-2-[6-(2,2-Diphenyl-ethylamino)-2-(2-pyrrolidin-1-yl-ethylamino)-purin-9-yl]-5-(2-ethyl-2H-tetrazol-5-yl)-tetrahydro-furan-3,4-diol tris(Trifluoroacetate)] | >546 | 2.23 | 71.35 |
| CCn1nnc([C@H]2O[C@@H](n3cnc4c(NCC(c5ccccc5)c5ccccc5)nc(NCCN5CCOCC5)nc43)[C@H](O)[C@@H]2O)n1.O=C(O)C(F)(F)F.O=C(O)C(F)(F)F.O=C(O)C(F)(F)F [Example 44, (2R,3R,4S,5R)-2-[6-(2,2-Diphenyl-ethylamino)-2-(2-morpholin-4-yl-ethylamino)-purin-9-yl]-5-(2-ethyl-2H-tetrazol-5-yl)-tetrahydro-furan-3,4-diol tris(Trifluoroacetate)] | >546 | 3.25 | 44.11 |
| CCn1nnc([C@H]2O[C@@H](n3cnc4c(NCC(c5ccccc5)c5ccccc5)nc(NC5CCS(=O)(=O)C5)nc43)[C@H](O)[C@@H]2O)n1.O=C(O)C(F)(F)F.O=C(O)C(F)(F)F (stereo partly drawn) [Example 45] | >420 | 2.26 | >1578.00 |
| CCn1nnc([C@H]2O[C@@H](n3cnc4c(NCC(c5ccccc5)c5ccccc5)nc(NCCN5CCCCC5)nc43)[C@H](O)[C@@H]2O)n1.O=C(O)C(F)(F)F.O=C(O)C(F)(F)F [Example 46] | >216 | 1.37 | 64.00 |
| CCn1nnc([C@H]2O[C@@H](n3cnc4c(NCC(c5ccccc5)c5ccccc5)nc(NCCO)nc43)[C@H](O)[C@@H]2O)n1.O=C(O)C(F)(F)F [Example 47, (2R,3R,4S,5R)-2-[6-(2,2-Diphenyl-ethylamino)-2-(2-hydroxy-ethylamino)-purin-9-yl]-5-(2-ethyl-2H-tetrazol-5-yl)-tetrahydro-furan-3,4-diol Trifluoroacetate] | >216 | 1.06 | 27.40 |
| CCn1nnc([C@H]2O[C@@H](n3cnc4c(NCc5cccc(I)c5)nc(NCCN5CCOCC5)nc43)[C@H](O)[C@@H]2O)n1 [Example 48, (2R,3S,4R,5R)-2-(2-Ethyl-2H-tetrazol-5-yl)-5-[6-(3-iodo-benzylamino)-2-(2-morpholin-4-yl-ethylamino)-purin-9-yl]-tetrahydro-furan-3,4-diol] | >181 | 4.12 | 102.00 |
| CCn1nnc([C@H]2O[C@@H](n3cnc4c(NCCc5ccccc5)nc(NCCN5CCOCC5)nc43)[C@H](O)[C@@H]2O)n1 [Example 49, (2R,3S,4R,5R)-2-(2-Ethyl-2H-tetrazol-5-yl)-5-[2-(2-morpholin-4-yl-ethylamino)-6-phenethylamino-purin-9-yl]-tetrahydro-furan-3,4-diol] | >214 | 3.28 | 158.70 |
| CC(=O)O.CC(=O)O.CCn1nnc(C2OC(n3cnc4c(NCCN5CCOCC5)nc(NCCc5cn(C)cn5)nc43)C(O)C2O)n1 [Example 50, (2R,3S,4R,5R)-2-(2-Ethyl-2H-tetrazol-5-yl)-5-[2-[2-(1-methyl-1H-imidazol-4-yl)-ethylamino]-6-(2-morpholin-4-yl-ethylamino)-purin-9-yl]-tetrahydro-furan-3,4-diol Diacetate] | >86 | 1.48 | 2443.00 |
| CC(=O)O.CCn1nnc([C@H]2O[C@@H](n3cnc4c(NCCC(C)(C)C)nc(NCCNc5ccccn5)nc43)[C@H](O)[C@@H]2O)n1 [Example 51, (2R,3R,4S,5R)-2-{6-(3,3-Dimethyl-butylamino)-2-[2-(pyridin-2-ylamino)-ethylamino]-purin-9-yl}-5-(2-ethyl-2H-tetrazol-5-yl)-tetrahydro-furan-3,4-diol Acetate] | >42 | 1.46 | 144.00 |
| CCn1nnc(C2OC(n3cnc4c(NCCC(C)(C)C)nc(NC(CO)Cc5ccccc5)nc43)C(O)C2O)n1 [Example 52, (2R,3R,4S,5R)-2-[6-(3,3-Dimethyl-butylamino)-2-(1S-hydroxymethyl-2-phenyl-ethylamino)-purin-9-yl]-5-(2-ethyl-2H-tetrazol-5-yl)-tetrahydro-furan-3,4-diol Acetate] | >736 | 9.90 | 481.30 |
| CCn1nnc([C@H]2O[C@@H](n3cnc4c(N)nc(N[C@H]5CC[C@H](N)CC5)nc43)[C@H](O)[C@@H]2O)n1 [Example 53, (2R,3R,4S,5R)-2-[6-Amino-2-(trans-4-amino-cyclohexylamino)-purin-9-yl]-5-(2-ethyl-2H-tetrazol-5-yl)-tetrahydro-furan-3,4-diol] | >960 | 4.14 | 298.30 |
| CCn1nnc([C@H]2O[C@@H](n3cnc4c(N)nc(NCCc5cn(C)cn5)nc43)[C@H](O)[C@@H]2O)n1.O=CO [Example 54, (2R,3R,4S,5R)-2-{6-Amino-2-[2-(1-methyl-1H-imidazol-4-yl)-ethylamino]-purin-9-yl}-5-(2-ethyl-2H-tetrazol-5-yl)-tetrahydro-furan-3,4-diol Formate] | >175 | 1.16 | 267.60 |
| CCn1nnc([C@H]2O[C@@H](n3cnc4c(N)nc(NCCNc5ccccn5)nc43)[C@H](O)[C@@H]2O)n1.O=C(O)C(F)(F)F [Example 55, (2R,3R,4S,5R)-2-{6-Amino-2-[2-(pyridin-2-ylamino)-ethylamino)-purin-9-yl}-5-(2-ethyl-2H-tetrazol-5-yl)-tetrahydro-furan-3,4-diol Trifluoroacetate] | >435 | 5.77 | 1136.00 |
